Structures are written as SMILES. pEC50: −log10 of the molar value. Activity calls are given as the source filed them. The calls are words filed in the database; no cut-off is given here.

For data set [1], the system named is BHK-21. The data set can be described thus: Cytotoxicity against MRP1-expressing BHK21 cells assessed as growth inhibition at 20 uM after 72 hrs by MTT assay. Particulars: Mesocricetus auratus; for inhibition of growth at 20 µM: BHK-21, 72 h, read-out: GI. It counts as functional. On the technique in general: Tetrazolium dyes change colour on reduction, which living cells bring about.

In data set [2] the test system is BHK-21. The data set can be described thus: Cytotoxicity against wild type BHK21 cells assessed as reduction in cell viability at 20 uM after 72 hrs by MTT assay. Type of data set: cell-based, Mesocricetus auratus. Conditions: hamster, bhk-21, 72 h.
Data set [3] has as its target T1, MRP1 (Homo sapiens, UniProt P33527). Description: Inhibition of MRP1 (unknown origin) expressed in HEK293FlpIN cells assessed as reduction in calcein-AM efflux at 20 uM incubated for 30 mins by flow cytometric analysis relative to control. Particulars: HEK293FlpIN cells expressing MRP1, probe calcein-AM. It counts as cell-based.
A short description of data set [4]: Inhibition of P-gp (unknown origin) expressed in mouse NIH/3T3 cells assessed as reduction in rhodamine 123 efflux at 20 uM incubated for 30 mins by flow cytometric analysis relative to control. It counts as cell-based. Conditions: Homo sapiens.
Data set [5] deals with T2, BCRP (ABCG2) (Homo sapiens, UniProt Q9UNQ0).
T2 sequence (Q9UNQ0 whole entry): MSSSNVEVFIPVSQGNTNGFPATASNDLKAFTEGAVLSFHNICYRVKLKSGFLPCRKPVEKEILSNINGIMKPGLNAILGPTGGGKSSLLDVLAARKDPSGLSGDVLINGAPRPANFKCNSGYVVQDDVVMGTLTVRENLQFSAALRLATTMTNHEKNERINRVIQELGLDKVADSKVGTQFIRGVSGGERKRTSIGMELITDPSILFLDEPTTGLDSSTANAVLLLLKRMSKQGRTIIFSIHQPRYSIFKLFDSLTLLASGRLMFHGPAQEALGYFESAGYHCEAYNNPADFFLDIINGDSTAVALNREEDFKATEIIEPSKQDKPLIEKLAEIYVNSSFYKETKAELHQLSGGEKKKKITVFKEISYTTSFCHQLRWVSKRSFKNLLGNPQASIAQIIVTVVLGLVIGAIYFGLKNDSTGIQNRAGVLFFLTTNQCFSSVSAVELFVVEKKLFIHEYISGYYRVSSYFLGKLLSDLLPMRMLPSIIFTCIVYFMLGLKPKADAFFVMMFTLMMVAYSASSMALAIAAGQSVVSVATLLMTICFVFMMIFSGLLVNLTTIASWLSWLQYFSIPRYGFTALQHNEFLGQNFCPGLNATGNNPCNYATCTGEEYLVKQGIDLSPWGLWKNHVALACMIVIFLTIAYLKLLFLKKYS
The data set can be described thus: Inhibition of BCRP (unknown origin) expressed in HEK293 cells assessed as reduction in mitoxantrone efflux at 20 uM incubated for 30 mins by flow cytometric analysis relative to control. Type of data set: cell-based. Particulars: HEK293 cells expressing BCRP, probe mitoxantrone. In general terms: Flow cytometry measures light scatter and fluorescence of single cells or particles in a stream.

Data set [6] concerns NIH3T3. Description: Cytotoxicity against mouse NIH/3T3 cells assessed as reduction in cell viability at 20 uM after 72 hrs by MTT assay. Type of data set: cell-based. Particulars: nih3t3, 72 h.
Data set [7] deals with NIH3T3. Description: Cytotoxicity against MDR1-expressing mouse NIH/3T3 cells assessed as growth inhibition at 20 uM after 72 hrs by MTT assay. It counts as functional, cell-based.
In data set [8] the test system is BHK-21. The data set can be described thus: Cytotoxicity against MRP1-expressing BHK21 cells assessed as cell death after 72 hrs by MTT assay. It counts as functional, cell-based. Conditions: Mesocricetus auratus, BHK-21, 72 h.
Data set [9] deals with BHK-21. The data set can be described thus: Resistance ratio of EC50 for MRP1-expressing BHK21 cells to EC50 for wild type BHK21 cells. It counts as functional, Mesocricetus auratus.
In data set [10] the target is T1, MRP1. Description: Inhibition of MRP1 (unknown origin) expressed in BHK21 cells assessed as GSH efflux at 20 uM incubated for 3 hrs measured every 30 secs for 2 mins by GSH reductase enzyme based assay (reference value: 100%). Type of data set: cell-based. Conditions: BHK21 cells expressing MRP1, probe GSH.

T1 sequence (P33527 whole entry): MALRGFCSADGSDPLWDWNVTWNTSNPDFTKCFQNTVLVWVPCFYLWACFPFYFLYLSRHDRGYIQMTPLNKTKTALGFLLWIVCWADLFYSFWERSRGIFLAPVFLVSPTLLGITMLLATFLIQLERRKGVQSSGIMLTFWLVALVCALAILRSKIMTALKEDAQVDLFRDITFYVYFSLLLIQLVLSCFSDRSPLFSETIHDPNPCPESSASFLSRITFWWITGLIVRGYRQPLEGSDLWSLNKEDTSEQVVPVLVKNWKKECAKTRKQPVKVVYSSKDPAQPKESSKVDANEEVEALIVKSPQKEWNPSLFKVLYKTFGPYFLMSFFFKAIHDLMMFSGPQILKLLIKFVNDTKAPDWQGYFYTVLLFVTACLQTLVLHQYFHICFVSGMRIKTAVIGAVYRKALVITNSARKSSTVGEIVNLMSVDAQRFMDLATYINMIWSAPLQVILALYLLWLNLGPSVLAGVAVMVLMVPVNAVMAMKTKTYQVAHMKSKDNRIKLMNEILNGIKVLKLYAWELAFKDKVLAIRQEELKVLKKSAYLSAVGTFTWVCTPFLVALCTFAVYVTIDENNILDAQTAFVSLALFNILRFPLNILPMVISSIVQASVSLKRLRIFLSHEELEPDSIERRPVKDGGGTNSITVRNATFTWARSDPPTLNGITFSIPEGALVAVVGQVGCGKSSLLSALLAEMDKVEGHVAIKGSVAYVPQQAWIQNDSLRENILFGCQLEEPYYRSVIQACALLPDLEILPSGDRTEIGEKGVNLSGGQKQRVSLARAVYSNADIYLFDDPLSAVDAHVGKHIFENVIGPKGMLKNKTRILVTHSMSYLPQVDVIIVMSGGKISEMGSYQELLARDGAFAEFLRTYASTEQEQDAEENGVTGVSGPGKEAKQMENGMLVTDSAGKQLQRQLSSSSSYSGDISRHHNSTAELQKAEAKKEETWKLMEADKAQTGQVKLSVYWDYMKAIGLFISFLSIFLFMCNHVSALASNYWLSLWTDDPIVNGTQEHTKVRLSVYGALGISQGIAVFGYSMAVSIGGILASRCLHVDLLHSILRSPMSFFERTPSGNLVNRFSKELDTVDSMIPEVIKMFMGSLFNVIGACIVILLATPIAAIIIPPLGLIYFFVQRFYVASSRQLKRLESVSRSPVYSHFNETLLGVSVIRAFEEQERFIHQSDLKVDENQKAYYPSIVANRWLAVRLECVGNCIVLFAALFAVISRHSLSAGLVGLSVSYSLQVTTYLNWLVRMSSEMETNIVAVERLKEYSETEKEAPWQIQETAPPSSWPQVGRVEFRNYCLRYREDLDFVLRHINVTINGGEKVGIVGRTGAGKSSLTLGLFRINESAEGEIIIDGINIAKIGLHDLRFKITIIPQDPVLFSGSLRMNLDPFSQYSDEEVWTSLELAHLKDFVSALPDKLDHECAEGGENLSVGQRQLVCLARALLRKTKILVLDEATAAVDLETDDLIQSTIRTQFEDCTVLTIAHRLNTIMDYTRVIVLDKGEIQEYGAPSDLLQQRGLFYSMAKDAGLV

For the compound `CC[C@H]1CN(C)[C@H]2Cc3c([nH]c4ccccc34)/C(=N/N=C\c3ccc([N+](=O)[O-])cc3)C[C@H]1[C@H]2C(=O)OC`, the inhibition of growth at 20 µM in [1] lay in the range of 90 to 98%. For the same compound, the Activity result in [2] and in data set [6] was “Non-Toxic” throughout. Moreover, the inhibition (usually the change of the read-out against control, counted positive when it falls) at 0.5 h, 20 µM in [3] is 47.5%; in [5] it was 2.2%. Besides, the inhibition in data set [4] was found to be 7.5%. Also, the “growth inhibition (GI)” value in data set [7] was “Active”.
Take `CC[C@@H]1CN(C)[C@H]2Cc3c([nH]c4ccccc34)/C(=N/N=C\c3ccc([N+](=O)[O-])cc3)C[C@H]1[C@H]2C(=O)OC`: the inhibition of growth at 20 µM in data set [1] is above 90%. The Activity entry in [2] and in data set [6] was “Non-Toxic” each time. Besides, the inhibition at 0.5 h, 20 µM in data set [3] is 23.4%; in data set [5], 2.9%. Further, the inhibition in [4] came to 14.7%. Further, the “growth inhibition (GI)” value in [7] is “Active”.
As for `CCC(/C=N\N=C1/C[C@@H]2[C@H](CC)CN(C)[C@@H](Cc3c1[nH]c1ccccc31)[C@@H]2C(=O)OC)CC`, the pEC50 (in general, the negative decadic logarithm of the EC50, by convention in mol/L) in [8] was 4.56. The “Ratio EC50” value in data set [9] is 0.81. In addition, the “growth inhibition (GI)” value in [1] and in data set [7] was “Active” each time. The Activity entry in [2] and in [6] was “Non-Toxic” in each case. Further, the inhibition at 0.5 h, 20 µM in data set [3] was 26.4%; in data set [5], 0.9%. For the same compound, the inhibition in [4] was found to be 2.8%. Also, the inhibition at 3 h, 20 µM in [10] was in the range of 63 to 75%.
For the compound `CC[C@H]1CN(C)[C@H]2Cc3c([nH]c4ccccc34)/C(=N/N=C\C=C\c3ccccc3)C[C@H]1[C@H]2C(=O)OC`, the inhibition of growth at 20 µM in data set [1] is 90 to 98%. The Activity entry in data set [2] and in data set [6] was “Non-Toxic” throughout. Also, the inhibition at 0.5 h, 20 µM in [3] is 20.3%; in data set [5], -0.3%. In addition, the inhibition in data set [4] was 45.8%. In addition, the “growth inhibition (GI)” value in data set [7] was “Active”.
Consider `CCC(/C=N\N=C1/C[C@@H]2[C@@H](CC)CN(C)[C@@H](Cc3c1[nH]c1ccccc31)[C@@H]2C(=O)OC)CC`, for which the pEC50 in data set [8] was 4.74. In addition, in data set [9], the “Ratio EC50” value was 0.63. Also, the “growth inhibition (GI)” value in data set [1] and in data set [7] was “Active” in each case. For the same compound, the Activity entry in data set [2] and in data set [6] was “Non-Toxic” each time. Moreover, the inhibition at 0.5 h, 20 µM in data set [3] is 30.3%; in data set [5], 8.2%. For the same compound, the inhibition in data set [4] is 26.5%. For the same compound, in data set [10], the inhibition at 3 h, 20 µM was 63 to 75%.
With `CC[C@H]1CN(C)[C@H]2Cc3c([nH]c4ccccc34)/C(=N/N=C\c3cccc(Br)c3)C[C@H]1[C@H]2C(=O)OC`, the inhibition of growth at 20 µM in data set [1] is 90 to 98%. The Activity result in data set [2] and in [6] was “Non-Toxic” in each case. For the same compound, the figures for the inhibition at 0.5 h, 20 µM in data set [3] and in data set [5] were 12.8% and -3.1%, respectively. In data set [4], the inhibition was determined as 28.6%. In addition, in data set [7], the “growth inhibition (GI)” value was “Active”.
Consider `CC[C@H]1CN(C)[C@H]2Cc3c([nH]c4ccccc34)/C(=N/N=C\c3ccc[nH]3)C[C@H]1[C@H]2C(=O)OC`, for which the inhibition of growth at 20 µM in data set [1] was above 70%. In addition, the Activity result in data set [2] and in [6] was “Non-Toxic” each time. Besides, the inhibition at 0.5 h, 20 µM in [3] is 56%; in [5], 13.5%. In addition, the inhibition in [4] was found to be 27.6%. Also, the inhibition at 3 h, 20 µM in [10] is 63 to 75%. For the same compound, the “growth inhibition (GI)” value in data set [7] was “Active”.
As for `CC[C@@H]1CN(C)[C@H]2Cc3c([nH]c4ccccc34)/C(=N/N=C\c3ccccc3[N+](=O)[O-])C[C@H]1[C@H]2C(=O)OC`, the inhibition of growth at 20 µM in data set [1] was 90 to 98%. For the same compound, the Activity entry in data set [2] and in [6] was “Non-Toxic” each time. For the same compound, the inhibition at 0.5 h, 20 µM in data set [3] is 14.6%; in data set [5], -0.1%. Further, in data set [4], the inhibition was determined as 42.9%. In addition, in [7], the “growth inhibition (GI)” value was “Active”.
For `CC[C@@H]1CN(C)[C@H]2Cc3c([nH]c4ccccc34)/C(=N/N=C\C(C)(C)C)C[C@H]1[C@H]2C(=O)OC`, the pEC50 in [8] is 4.24. Further, the “Ratio EC50” value in data set [9] is listed as 0.83. The “growth inhibition (GI)” value in data set [1] and in data set [7] was “Active” in each case. The Activity entry in data set [2] and in [6] was “Non-Toxic” each time. Moreover, the inhibition at 0.5 h, 20 µM in data set [3] is 2.5%; in data set [5], 1.3%. Further, in data set [4], the inhibition was 3.1%. The inhibition at 3 h, 20 µM in [10] is 63 to 75%.
As for `CC[C@H]1CN(C)[C@H]2Cc3c([nH]c4ccccc34)/C(=N/N=C\c3ccccc3[N+](=O)[O-])C[C@H]1[C@H]2C(=O)OC`, the inhibition at 0.5 h, 20 µM in data set [3] was 29.5%; in data set [5], 4.5%. For the same compound, the inhibition in [4] was 57.4%. Also, the Activity result in [6] is reported as “Non-Toxic”. The “growth inhibition (GI)” value in data set [7] is “Active”.
With `CC[C@H]1CN(C)[C@H]2Cc3c([nH]c4ccccc34)/C(=N/N=C\C3CCCC3)C[C@H]1[C@H]2C(=O)OC`, the inhibition at 0.5 h, 20 µM in data set [3] is 35.5%; in data set [5], 0.8%. The inhibition in data set [4] amounted to 30.3%. In data set [6], the Activity result is listed as “Non-Toxic”. The “growth inhibition (GI)” value in data set [7] was “Active”.
Regarding `CC[C@@H]1CN(C)[C@H]2Cc3c([nH]c4ccccc34)/C(=N/N=C\C3CCCC3)C[C@H]1[C@H]2C(=O)OC`, the inhibition at 0.5 h, 20 µM in data set [3] was 19.1%; in data set [5], -2.3%. Besides, the inhibition in [4] was 2.7%. In addition, in [6], the Activity result is on record as “Non-Toxic”. Besides, in [7], the “growth inhibition (GI)” value was “Active”.
As for `CC[C@H]1CN(C)[C@H]2Cc3c([nH]c4ccccc34)/C(=N/N=C\c3cccc(Cl)c3)C[C@H]1[C@H]2C(=O)OC`, the inhibition of growth at 20 µM in data set [1] lay within 90 to 98%. Also, the Activity result in [2] and in [6] was “Non-Toxic” each time. The inhibition at 0.5 h, 20 µM is 13.6% in data set [3] and -2.4% in data set [5]. Also, the inhibition in [4] worked out at 21.4%. For the same compound, the “growth inhibition (GI)” value in data set [7] was “Active”.
As for `CC[C@H]1CN(C)[C@H]2Cc3c([nH]c4ccccc34)/C(=N/N=C\C(C)(C)C)C[C@H]1[C@H]2C(=O)OC`, in [8], the negative logarithm of the EC50 (pEC50) is 4.49. Besides, in data set [9], the “Ratio EC50” value is on record as 0.74. The “growth inhibition (GI)” value in data set [1] and in [7] was “Active” throughout. Further, the Activity result in data set [2] and in [6] was “Non-Toxic” each time. The inhibition at 0.5 h, 20 µM is 15.9% in data set [3] and 2.4% in data set [5]. Further, the inhibition in data set [4] was 10.3%. Further, the inhibition at 3 h, 20 µM in data set [10] was 63 to 75%.
For the compound `CC[C@@H]1CN(C)[C@H]2Cc3c([nH]c4ccccc34)/C(=N/N=C\c3ccc[nH]3)C[C@H]1[C@H]2C(=O)OC`, the figures for the inhibition at 0.5 h, 20 µM in data set [3] and in [5] were 15.2% and 3.7%, respectively. Also, the inhibition in data set [4] is 4.5%. In addition, the Activity result in data set [6] is “Non-Toxic”. Further, the “growth inhibition (GI)” value in data set [7] is “Active”.
As to `CC[C@@H]1CN(C)[C@H]2Cc3c([nH]c4ccccc34)/C(=N/N=C\c3cccc(Cl)c3)C[C@H]1[C@H]2C(=O)OC`, in data set [1], the inhibition of growth at 20 µM fell in the range of 90 to 98%. Besides, the Activity entry in data set [2] and in [6] was “Non-Toxic” throughout. Moreover, the inhibition at 0.5 h, 20 µM is 10.8% in [3] and -1.3% in data set [5]. For the same compound, the inhibition in [4] came out at 20.2%. Further, the “growth inhibition (GI)” value in data set [7] is “Active”.

These data come from ChEMBL document CHEMBL4177736, “Monoterpene indole alkaloid azine derivatives as MDR reversal agents” (Bioorg Med Chem, 2018).
